# Data: patent US20250268904A1 (priority 2020, published 2025)
# Key:
# U2OS osteosarcoma cells [1] = test: Induction of vacuoles (enlarged lysosomes); type: cell-based; conditions: within 4 hours
# Method: (§1) The WX8-family of PIKfyve specific inhibitors disrupts multiple events in lysosome homeostasis (Table 1): • prevent lysosome fission without preventing homotypic lysosome fusion, thereby causing cytoplasmic vacuolization (enlarged lysosomes). Cytoplasmic vacuolization is evident within 30 minutes and reversible for up to 24-48 hours (1Vacuoles). • inhibit trafficking of molecules into lysosomes, thereby reducing lysosomal activity • inhibit maturation of lysosome cathepsins, thereby reducing lysosomal activity • disrupt endosome trafficking, thereby reducing cellular uptake of extracellular materials • inhibit cell proliferation (^3Proliferation) • disrupt autophagy by preventing heterotypic fusion of lysosomes with autophagosomes (^2LC3-II), thereby inducing cell death in autophagy-dependent cancer cells (^4Viability) under conditions where non-malignant cells remain viable.
# U2OS osteosarcoma cells [2] = test: LC3-II (autophagosome) accumulation; type: cell-based; conditions: Homo sapiens, within 4 to 8 hours, read-out: Accumulate LC3-II EC50
# Method: as §1
# U2OS osteosarcoma cells [3] = test: Suppression of cell proliferation; type: cell-based; conditions: Homo sapiens, 72 h, within 3 days, read-out: Inhibit Proliferation IC50
# Method: as §1
# U2OS osteosarcoma cells [4] = test: Reduction of cellular ATP levels (viability); type: cell-based; conditions: Homo sapiens, 96 h, within 4 days, read-out: Inhibit Viability IC50 (cellular ATP levels)
# Method: as §1
# Vero E6 cells [5] = type: cell-based, African Green monkey
# Vero E6 cells [6] = test: Vero E6 cell proliferation (attached cell count); type: cell-based, African Green monkey; conditions: Chlorocebus sabaeus, Vero C1008, 72 h; cultured for 3 days
# Method: (§2) FIG. 4. […] Vero E6 cells were plated at low density and then cultured overnight before adding WX8 at the concentrations indicated and then cultured for 3 days. (A) Attached cells were collected by trypsinization and counted. The fraction of cells (%) as well as the change in the total number of cells (fold change) relative to cells cultured in the presence of the WX8 vehicle control are given. (B) Attached and unattached cells were combined and stained with annexin-V to identify cells undergoing apoptosis and propidium iodide (PI) to identify dead cells that were permeable to a nuclear DNA stain. The cells were then analyzed by fluorescence activated cell sorting. Quadrant (Q) Q3 contained the unstained (live) cells. Q1 contained cells stained only with annexin-V (early apoptosis). Q2 contained cells stained with both annexin-V and PI (apoptotic dead cells). Q4 contained cells stained only with PI (necrotic dead cells). (C) Data were normalized to the fraction of live cells. Error bars indicate ±SEM. (D) Cells were first permeabilized, stained with PI and then analyzed by fluorescence activated cell sorting in order to quantify the fraction of cells with <2N DNA content. (E) The fraction of cells with <2N DNA content ±SEM.
# (§3) WX8 inhibited Vero E6 cell proliferation with an IC50 of 0.4 μM (FIG. 4A). However, 100-fold higher concentrations of WX8 were required to induce cell death. […]
# Vero E6 cells [7] = test: Vero E6 cell death, annexin-V / propidium iodide FACS; type: cell-based, African Green monkey; conditions: Chlorocebus sabaeus, Vero C1008, 72 h; 3 days, annexin-V and propidium iodide staining; read-out: IC50 Vero E6 cell death (fraction of live cells)
# Method: as §2, §3
# Vero E6 cells [8] = test: Vero E6 loss of cellular DNA (PI FACS); type: cell-based, African Green monkey; conditions: Chlorocebus sabaeus, Vero C1008, 72 h, read-out: IP50 for loss of cellular DNA
# Method: as §2, §3
# [9] = test system: 'autophagy-addicted' human melanoma cells; type: cell-based
# SARS-CoV-2 [10] = test system: SARS-CoV-2
# in vitro = conditions: African green monkey
# PIKfyve = PIKfyve (Homo sapiens, UniProt Q9Y2I7); test: biochemical
# PIKfyve, sequence (Q9Y2I7 whole entry): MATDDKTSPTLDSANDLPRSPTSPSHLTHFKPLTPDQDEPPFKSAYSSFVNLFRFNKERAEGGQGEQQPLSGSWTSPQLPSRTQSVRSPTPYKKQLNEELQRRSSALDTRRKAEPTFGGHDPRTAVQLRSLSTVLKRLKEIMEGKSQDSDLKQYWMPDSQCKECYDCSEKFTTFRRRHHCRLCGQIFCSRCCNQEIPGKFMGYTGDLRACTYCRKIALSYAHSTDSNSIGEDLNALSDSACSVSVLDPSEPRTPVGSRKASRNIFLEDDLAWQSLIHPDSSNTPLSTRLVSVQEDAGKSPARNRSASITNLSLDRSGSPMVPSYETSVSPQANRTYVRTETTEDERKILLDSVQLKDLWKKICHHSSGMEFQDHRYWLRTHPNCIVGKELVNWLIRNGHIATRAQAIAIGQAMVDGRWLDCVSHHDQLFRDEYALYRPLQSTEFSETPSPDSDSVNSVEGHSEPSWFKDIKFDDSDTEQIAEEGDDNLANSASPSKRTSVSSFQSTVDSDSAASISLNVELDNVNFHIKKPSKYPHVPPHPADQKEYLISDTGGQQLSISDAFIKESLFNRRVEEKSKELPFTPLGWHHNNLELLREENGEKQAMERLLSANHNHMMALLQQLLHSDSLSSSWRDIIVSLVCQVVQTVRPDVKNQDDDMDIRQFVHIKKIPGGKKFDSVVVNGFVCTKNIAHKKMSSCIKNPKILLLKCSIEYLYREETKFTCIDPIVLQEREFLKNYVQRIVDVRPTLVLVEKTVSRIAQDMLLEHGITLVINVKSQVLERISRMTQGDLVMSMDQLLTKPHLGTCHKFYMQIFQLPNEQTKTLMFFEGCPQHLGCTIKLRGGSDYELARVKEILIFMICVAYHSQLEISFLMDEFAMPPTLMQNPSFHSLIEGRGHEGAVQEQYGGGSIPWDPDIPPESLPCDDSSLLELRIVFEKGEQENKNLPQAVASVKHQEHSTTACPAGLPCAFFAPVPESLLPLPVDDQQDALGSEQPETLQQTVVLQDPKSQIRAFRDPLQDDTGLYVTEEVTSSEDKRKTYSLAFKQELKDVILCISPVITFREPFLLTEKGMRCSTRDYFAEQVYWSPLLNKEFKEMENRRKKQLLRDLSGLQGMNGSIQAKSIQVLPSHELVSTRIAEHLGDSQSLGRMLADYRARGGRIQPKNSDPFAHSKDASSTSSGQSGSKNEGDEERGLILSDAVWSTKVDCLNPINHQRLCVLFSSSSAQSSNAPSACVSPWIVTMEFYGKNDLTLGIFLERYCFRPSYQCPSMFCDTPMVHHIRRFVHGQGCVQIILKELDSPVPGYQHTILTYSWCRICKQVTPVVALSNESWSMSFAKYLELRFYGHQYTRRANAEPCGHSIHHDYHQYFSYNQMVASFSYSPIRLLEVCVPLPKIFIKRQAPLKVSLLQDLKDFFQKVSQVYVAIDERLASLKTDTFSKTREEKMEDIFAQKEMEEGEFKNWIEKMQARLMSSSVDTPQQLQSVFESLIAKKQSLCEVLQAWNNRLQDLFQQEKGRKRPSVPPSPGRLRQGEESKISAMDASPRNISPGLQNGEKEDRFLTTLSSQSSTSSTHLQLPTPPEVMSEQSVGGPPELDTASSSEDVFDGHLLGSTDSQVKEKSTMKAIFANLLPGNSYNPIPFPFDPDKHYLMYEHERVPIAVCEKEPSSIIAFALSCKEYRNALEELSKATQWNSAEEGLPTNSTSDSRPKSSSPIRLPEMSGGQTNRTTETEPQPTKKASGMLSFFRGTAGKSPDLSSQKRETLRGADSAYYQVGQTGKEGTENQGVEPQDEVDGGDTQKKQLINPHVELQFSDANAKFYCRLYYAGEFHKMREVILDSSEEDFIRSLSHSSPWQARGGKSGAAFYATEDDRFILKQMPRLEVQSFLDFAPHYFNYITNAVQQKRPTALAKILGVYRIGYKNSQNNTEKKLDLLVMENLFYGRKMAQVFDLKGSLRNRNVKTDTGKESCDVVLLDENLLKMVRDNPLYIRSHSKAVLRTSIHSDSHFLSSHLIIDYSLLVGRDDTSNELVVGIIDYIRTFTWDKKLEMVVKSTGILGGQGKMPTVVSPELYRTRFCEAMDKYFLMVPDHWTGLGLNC
# Method: (§4) Each kinase was tagged with a unique DNA sequence that allowed the amount of protein bound to the solid support to be quantified by PCR. The mean equilibrium dissociation constant (Kd) for each compound was then determined for the top three hits (PIKFYVE, PIP4K2C and MTOR) from two independent titration curves. A dissociation constant (Kd) was calculated by measuring the amount of kinase captured on the solid support as a function of the test compound concentration (nM) on a log10 scale. Mean Kd values (±range) are given for each WX8-family member. The ratios of PIP4K2C/PIKfyve and mTOR/PIKfyve indicate the relative specificity of each compound for PIKfyve.
# SARS-CoV-2 [11] = test: microbe, parasite or virus in culture; conditions: Severe acute respiratory syndrome coronavirus 2, Vero C1008, read-out: IC50 inhibition of SARS-CoV-2 infection
# PIP4K2C = molecular target: T1, PIP4K2C (Homo sapiens, UniProt Q8TBX8); conditions: ratio of Kd values
# T1 sequence (Q8TBX8 1-421): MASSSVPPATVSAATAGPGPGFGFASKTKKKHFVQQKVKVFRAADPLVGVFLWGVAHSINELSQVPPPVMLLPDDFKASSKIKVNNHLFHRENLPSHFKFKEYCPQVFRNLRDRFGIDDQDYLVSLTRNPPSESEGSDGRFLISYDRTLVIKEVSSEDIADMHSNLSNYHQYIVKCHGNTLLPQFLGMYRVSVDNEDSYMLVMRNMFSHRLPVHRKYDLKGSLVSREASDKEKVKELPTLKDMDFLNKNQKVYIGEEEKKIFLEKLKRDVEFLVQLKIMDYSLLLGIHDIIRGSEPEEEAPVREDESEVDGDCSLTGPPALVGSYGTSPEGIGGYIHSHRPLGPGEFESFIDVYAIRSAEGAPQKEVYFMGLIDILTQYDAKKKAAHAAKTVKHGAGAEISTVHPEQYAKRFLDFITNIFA
# Method: as §4
SMILES,Accumulate Vacuoles EC (U2OS osteosarcoma cells [1]) [µM],EC50 (U2OS osteosarcoma cells [2]) [µM],IC50 (U2OS osteosarcoma cells [3]) [nM],IC50 (U2OS osteosarcoma cells [4]) [nM],accumulation of cytoplasmic vacuoles (Vero E6 cells [5]),IC50 (Vero E6 cells [6]) [nM],IC50 (Vero E6 cells [7]) [µM],IC50 (Vero E6 cells [8]) [µM],lethality relative to chloroquine [9] [times],CC50/IC50 (SARS-CoV-2 [10]),CC50 (in vitro) [µM],Kd (PIKfyve) [nM],IC50 (SARS-CoV-2 [11]) [nM],affinity for PIKfyve relative to PIP4K2C (PIP4K2C/PIKfyve) (PIP4K2C) [fold]
C1=Nc2ccccc2/C1=C/NNc1nc(Nc2ccccc2)nc(N2CCOCC2)n1 [WX8],0.01,0.3,200,350,rapidly accumulated cytoplasmic vacuoles,400,70,60,100,245,42.3,< 1,172,366
CCc1ccc(Nc2nc(N3CCOCC3)nc(N3CCOCC3)n2)cc1 [XB6],2,> 10,7400,5300,,,,,,,,,,
Fc1ccc(Nc2nc(N3CCOCC3)nc(N3CCOCC3)n2)cc1Cl [XBA],4,7.5,4000,> 10000,,,,,,,,,,
Cc1cccc(/C=N/Nc2cc(N3CCOCC3)nc(N3CCOCC3)n2)c1 [NDF],0.1,1.5,1100,420,rapidly accumulated cytoplasmic vacuoles,,,,,52,26.3,,499,
"Cc1cccc(/C=N/Nc2cc(N3CCOCC3)nc(OCCc3ccccn3)n2)c1 [Apilimod, reference compound]",,,,,rapidly accumulated cytoplasmic vacuoles,,,,,"22,027",33,,1.5,
C(=N\Nc1cc(N2CCOCC2)nc(N2CCOCC2)n1)/c1ccccc1 [WWL],0.2,6.5,1600,2600,rapidly accumulated cytoplasmic vacuoles,,,,,16,40.3,,2440,
